The test deals with HBV. Description: Anti-HBV activity in vitro: quantification of extracellular HBV DNA by direct qPCR in HepAD38 cells. Type of test: cell-based. The settings on record: Hepatitis B virus, tetracycline-free medium, 96 hours at 37°C, reported as EC50 threshold value, read-out: HBV inh EC50. From the text: HepAD38 cell line (Ladner et al., Antimicrob Agents Chemother, 1997, 41, 1715-20) was used for HBV inhibition assays. HepAD38 is a subclone, derived from Hepatoblastoma cell line HepG2 (ATCC® Number: HB-8065™), that expresses HBV genome under the transcriptional control of a tetracycline-responsive promoter in a TET-OFF system: addition of tetracycline (TET) or doxycycline suppresses HBV replication, while its removal switches on the process allowing HBV viral particles release in the cell supernatant. HepAD38 cell line is maintained in DMEM/F12, supplemented with 10% of fetal bovine serum, 1% of glutamine, 1% of penicillin/streptomycin, 0.4 mg/ml G418 and 0,3 ug/ml tetracycline. For the HBV inhibition assay, doxycycline-free medium is used in order to allow virion production.
HBV inhibition activity in vitro was performed in 96 multiwell plates. During the initial (primary) screening, compounds were first tested in triplicates at concentrations of 0.02 µM, 0.1 µM, 0.5µM and 1µM. For selected compounds, an 8-point dose-response curve was obtained using 1:2 serial dilutions (starting from 0.01µM, 0.1µM, 0.4µM or 5 µM, depending on the degree of inhibition observed during the primary screening). From the dose-response curves, half maximal effective concentration (EC50) could be calculated (see also below).
In more detail, compounds - typically dissolved in DMSO stock solutions - were diluted to 2x the final desired concentration in 100 µl of the above medium (without doxycycline) and plated in three replicates in the 96-well plates.
Simultaneously, HepAD38 cells - extensively pre-washed in tetracycline-free medium in order to induce HBV production - were suspended at 2^∗10^4 cells in 100 µl of tetracycline-free medium and added to each well of the plate, to yield a final assay volume of 200 µl DMSO - used for stock solutions and compounds dilutions - which was always present in the assays at a final concentration of 0.5%.
Plates were then incubated 96 hours at 37°C and then subjected to cell viability assays and extracellular HBV quantification, in order to evaluate both the cytotoxic potential and the antiviral activity of compounds. Cytotoxicity was assessed by a commercial fluorescence assay that measures the metabolic activity of cells, directly related to cell viability (Cell Titer Blue, Promega). Anti-HBV activity was evaluated by quantification of extracellular HBV DNA with direct qPCR. In particular, supernatant was collected and centrifuged for cell debris clarification, viral DNA was extracted from virions by addition of lysis buffer (1 mM 1,4-dithiothreitol, 0.2% sodium dodecyl sulphate) and incubated at 95°C for 10 min. Samples were then diluted 1:40 and real time PCR amplification was performed with SYBR green assay (Power SYBR™ Green PCR Master Mix-Thermo Fisher Scientific) and specific HBV primer (HBV-DF:5'-[…]-3' (SEQ ID No. 1), HBV-DR:5'-[…]-3' (SEQ ID No.2)).
Antiviral activity data for each compound are reported as EC50 threshold value (see Table 1 legend). Excel and Graphpad Prism programs are typically used for data elaboration and EC50 calculation.

Experimental findings from patent EP3741762A1, “OXALAMIDO-SUBSTITUTED TRICYCLIC INHIBITORS OF HEPATITIS B VIRUS” (priority 2019, dated 2020) are described below.

Some results are limits rather than exact numbers.

By EC50 is commonly meant the midpoint of the concentration-response curve. Regarding `Cn1cc2c(c1C(=O)Nc1ccc(F)c(C#N)c1)OC[C@@H]1CN(C(=O)C(=O)NC3(C)COC3)C[C@@H]1NS2(=O)=O` [Example E6, (3aR,10aR)-N-(3-cyano-4-fluorophenyl)-7-methyl-2-(2-((3-methyloxetan-3-yl)amino)-2-oxoacetyl)-2,3,3a,4,10,10a-hexahydro-1H,7H-dipyrrolo[3,4-b:3',4'-f][1,4,5] oxathiazocine-8-carboxamide 5,5-dioxide], the EC50 was more than 500 nM.

Take `Cc1cc(NC(=O)c2c3c(cn2C)S(=O)(=O)N[C@H]2CN(C(=O)C(=O)NC(C)(C)C)C[C@H]2CO3)ccc1F` [Example E7, (3aR,10aR)-2-(2-(tert-butylamino)-2-oxoacetyl)-N-(4-fluoro-3-methylphenyl)-7-methyl-2,3,3a,4,10,10a-hexahydro-1H,7H-dipyrrolo[3,4-b:3',4'-f][1,4,5]oxathiazocine-8-carboxamide 5,5-dioxide]: the EC50 was less than 500 nM.

As to `Cc1cc(NC(=O)c2c3c(cn2C)S(=O)(=O)N[C@H]2CN(C(=O)C(=O)NC4CC4)C[C@H]2CO3)ccc1F` [Example E8, (3aR,10aR)-2-(2-(cyclopropylamino)-2-oxoacetyl)-N-(4-fluoro-3-methylphenyl)-7-methyl-2,3,3a,4,10,10a-hexahydro-1H,7H-dipyrrolo[3,4-b:3',4'-f][1,4,5]oxathiazocine-8-carboxamide 5,5-dioxide], the EC50 is less than 500 nM.

For the compound `Cc1cc(NC(=O)c2c3c(cn2C)S(=O)(=O)N[C@H]2CN(C(=O)C(=O)N[C@H](C)C(F)(F)F)C[C@H]2CO3)ccc1F` [Example E9, (3aR,10aR)-N-(4-fluoro-3-methylphenyl)-7-methyl-2-(2-oxo-2-(((R)-1,1,1-trifluoropropan-2-yl)amino)acetyl)-2,3,3a,4,10,10a-hexahydro-1H,7H-dipyrrolo[3,4-b:3',4'-f][1,4,5]oxathiazocine-8-carboxamide 5,5-dioxide], the EC50 is less than 500 nM.

Take `Cc1cc(NC(=O)c2c3c(cn2C)S(=O)(=O)N[C@H]2CN(C(=O)C(=O)NC4CC(F)(F)C4)C[C@H]2CO3)ccc1F` [Example E14, (3aR,10aR)-2-(2-((3,3-difluorocyclobutyl)amino)-2-oxoacetyl)-N-(4-fluoro-3-methylphenyl)-7-methyl-2,3,3a,4,10,10a-hexahydro-1H,7H-dipyrrolo[3,4-b:3',4'-f][1,4,5]oxathiazocine-8-carboxamide 5,5-dioxide]: the EC50 is less than 500 nM.

As to `Cc1cc(NC(=O)c2c3c(cn2C)S(=O)(=O)N[C@H]2CN(C(=O)C(=O)N[C@@H](C)C(F)(F)F)C[C@H]2CO3)ccc1F` [Example E15, (3aR,10aR)-N-(4-fluoro-3-methylphenyl)-7-methyl-2-(2-oxo-2-(((S)-1,1,1-trifluoropropan-2-yl)amino)acetyl)-2,3,3a,4,10,10a-hexahydro-1H,7H-dipyrrolo[3,4-b:3',4'-f][1,4,5]oxathiazocine-8-carboxamide 5,5-dioxide], the EC50 is less than 500 nM.

On to `Cc1cc(NC(=O)c2c3c(cn2C)S(=O)(=O)N[C@H]2CN(C(=O)C(=O)NCC(C)C)C[C@H]2CO3)ccc1F` [Example E16, (3aR,10aR)-N-(4-fluoro-3-methylphenyl)-2-(2-(isobutylamino)-2-oxoacetyl)-7-methyl-2,3,3a,4,10,10a-hexahydro-1H,7H-dipyrrolo[3,4-b:3',4'-f][1,4,5]oxathiazocine-8-carboxamide 5,5-dioxide], for which the EC50 was less than 500 nM.

Consider `Cc1cc(NC(=O)c2c3c(cn2C)S(=O)(=O)N[C@H]2CN(C(=O)C(=O)NCC(F)(F)F)C[C@H]2CO3)ccc1F` [Example E17, (3aR,10aR)-N-(4-fluoro-3-methylphenyl)-7-methyl-2-(2-oxo-2-((2,2,2-trifluoroethyl)amino)acetyl)-2,3,3a,4,10,10a-hexahydro-1H,7H-dipyrrolo[3,4-b:3',4'-f][1,4,5]oxathiazocine-8-carboxamide 5,5-dioxide], for which the EC50 was less than 500 nM.
